Test results taken from paper PMC13576449, “Small-Molecule Activators of PRMT1: Discovery, SAR Analyses, and Proapoptotic Effects in Pancreatic Cancer Cells” (Journal of Medicinal Chemistry, 2026).
Where two headings read alike, the source gives them in different places.

Columns and labels:
FLAG-tagged PRMT1 = molecular target: T1, FLAG-tagged PRMT1 (Rattus norvegicus, UniProt Q63009); test: Fluorescence-based in vitro PRMT assay (F-PRMT assay), PRMT1; format: biochemical; conditions: for activation at 100 µM: read-out: enhancement (increase) of PRMT1 enzymatic activity
T1 construct: Full-length FLAG-tagged PRMT protein; made in house; host or cells: Sf9 insect cells (baculovirus)

PANC-1 cells = test: Cell viability, CellTiter-Glo assay, PANC-1; format: cell-based, human; conditions: n = 3, read-out: half-maximal inhibitory concentration (IC50) for PANC-1 cell viability
Description: As negative control (Ctrl (−)), PRMT1 enzymes and [^14C-methyl]-SAM were incubated without substrates. Subsequently, samples were separated by SDS-PAGE, blotted, and analyzed by autoradiography. Substrates (H2A, H4 or GST-GAR) and molecular weights (kDa) of the protein marker are indicated. Black lines designate composite images, assembled from the same blots and exposure times. The methylation signals of the substrates were densitometrically quantified, and expressed relative to the DMSO-treated control, as indicated by the numbers below the autoradiographs. Representative results are depicted, with quantification graphs (below the autoradiographs in A and B) summarizing biological replicates. […] Subsequently, GST-GAR was immobilized on glutathione-beads and PRMT1 activity was measured by quantifying the incorporation of ^14C-methyl groups (in cpm) using liquid scintillation counting. […] Cell viability was quantified using the CellTiter-Glo assay. Viability of compound-treated cells is shown in % relative to the viability of solvent-treated cells, which was set to 100% (mean ± SD, n = 3), and then plotted against the logarithm of the compound concentrations. Concentration-viability curves were fitted by nonlinear regression, with the half-maximal inhibitory concentration (IC50) of the compounds for PANC-1 cell viability and the coefficient of determination (R^2) indicated. […] Subsequently, whole-cell extracts were prepared and analyzed by Western blot using antibodies against ADMA, ACTIN (ACT), and VINCULIN (VINC), of which the latter two stainings served as loading controls. Molecular weights (kDa) of the protein marker are indicated. All the ADMA signals per lane were densitometrically quantified, normalized to the signal of the respective loading control and expressed relative to the DMSO-treated control, as indicated by the numbers below the immunostainings.
Cell viability was assessed using the CellTiter-Glo assay (Promega) according to the manufacturer’s instructions. Briefly, PANC-1 and PaTu8988T cells were seeded as triplicates in 96 well plates (5 × 10^3 cells/well) and allowed to adhere for 3–4 h, followed by treatment with the compounds at 11–12 concentrations spanning 0.028–120 μM for 96 h, with DMSO (solvent) treated cells serving as control. Subsequently, cell viability was quantified by measuring luminescence on a microplate reader, and the signal of compound-treated cells was normalized to the signal of the solvent-treated control, which was set to 100%. Cell viability in % was plotted against the logarithm of the compound concentration, and concentration-response curves were fitted by nonlinear regression using a three-parameter logistic model to determine half-maximal inhibitory concentrations (IC50).

PaTu8988T cells = test: Annexin V/PI flow cytometry apoptosis assay, PaTu8988T; format: cell-based, human; conditions: for gemcitabine-induced apoptosis, AV/PI flow cytometry, co-treatment: TR-033 5 µM, TR-036 10 µM, ICTR-059 5 µM, after 24 h gemcitabine 1 μM, vs gemcitabine alone
Description: 6 Effect of small-molecule modulators on gemcitabine-induced apoptosis and tumor growth of PDAC cells. […] Subsequently, the luminescence-based caspase3/7 assay was performed. The activity of caspase 3/7 in treated cells was normalized to the activity measured in untreated cells (dark gray bar), which was set to 1 (mean SD, n = 6 for PANC-1 and n = 4 for PaTu8988T; *: p ≤ 0.05, **: p ≤ 0.01, ***: p ≤ 0.001, using the student t-test). […] After 24 h, gemcitabine (GEM, 1 μM) was added (+) or not (−) for another incubation of 48 h. Subsequently, the apoptotic cell fraction was quantified in % by flow cytometry using FITC-labeled Annexin V (AV) and propidium iodide (PI) staining (in B: mean ± SD, n = 6 for PANC-1 and n = 5 for PaTu8988T; **: p ≤ 0.01, ***: p ≤ 0.001, ****: p ≤ 0.0001, using the student t-test). […] Viable cells are AV/PI double-negative (AV–/PI–, lower left quadrant, Q4), early apoptotic cells are AV single-positive (AV+/PI– upper left quadrant, Q1), late apoptotic cells are AV/PI double-positive (AV+/PI+, upper right quadrant, Q2), and necrotic cells are PI single-positive (AV–/PI+, lower right quadrant, Q3). The sum of early and late apoptotic cell numbers (Q2+Q3 in %) is indicated in red. D-G: The workflow of the PDAC xenograft experiments in mice is depicted in D. PANC-1 cells (2 × 10^6 cells/mouse) were subcutaneously (s.c.) injected in the right flank of female athymic nude mice. […] Tumor volumes were measured every second day using a digital caliper. […] At the end of the 2 weeks, mice were sacrificed and tumors were dissected (F).
For quantification of apoptosis by Fluorescence Activated Cell Sorting (FACS), PANC-1 and PaTu8988T cells were seeded in 6-well plates (250 × 10^3 cells/well) and cultured in the absence or presence of compounds. After 24 h, gemcitabine was added or not for another 48 h. After harvesting and washing, unfixed cells (0.5–1 × 10^6) were incubated with FITC-labeled Annexin V and/or PI (BD Pharmingen) according to the manufacturer’s instructions. All samples were analyzed using a BD FACSCalibur flow cytometer (BD Bioscience). Data were acquired using the CellQuestPro program and analyzed with the FlowJo (FlowJo LLC) software.
After 24 hours, gemcitabine (GEM, 1 µM) was added (+) or not
(-) for another incubation of 48 hours. Subsequently, the apoptotic cell fraction was assessed by flow cytometry using FITC-labeled Annexin V (AV) and propidium iodide (PI) staining and quantified in % (mean ± SD, n=3-4; ns: not significant, *: p ≤0.05, **: p ≤0.01, ***: p ≤0.001, ****: p ≤0.0001, using the student t-test).

[1] = 100 μM compound, increase over solvent-treated activity

T1 sequence (Q63009 whole entry): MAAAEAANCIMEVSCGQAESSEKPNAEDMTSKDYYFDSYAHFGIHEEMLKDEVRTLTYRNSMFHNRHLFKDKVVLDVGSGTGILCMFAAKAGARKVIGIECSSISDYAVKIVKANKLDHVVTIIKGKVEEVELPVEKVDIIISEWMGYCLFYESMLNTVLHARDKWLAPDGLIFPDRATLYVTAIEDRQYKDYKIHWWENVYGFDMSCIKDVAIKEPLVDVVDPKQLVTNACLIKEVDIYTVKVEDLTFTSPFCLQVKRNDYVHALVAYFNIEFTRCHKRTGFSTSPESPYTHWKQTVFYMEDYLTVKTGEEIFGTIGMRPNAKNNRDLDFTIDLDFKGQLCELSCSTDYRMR

| PRMT1 activity compared to the solvent-treated activity of 100% (FLAG-tagged PRMT1; 100 μM compound) | effect on PRMT1 activity (in words) (FLAG-tagged PRMT1; 100 μM compound) | activation at 100 µM (FLAG-tagged PRMT1; [1]) [%] | IC50 (PANC-1 cells; Homo sapiens, PANC-1, 96 h) [µM] | Compound | IC50 (PANC-1 cells; 96 h) [µM] | gemcitabine-induced apoptosis, AV/PI flow cytometry, co-treatment (PaTu8988T cells; PaTu8988T, TR-07 10 μM, 48 h) | enhancement (increase) of PRMT1 enzymatic activity (FLAG-tagged PRMT1; [1]) | Efficacy ±Δ% (PRMT1) (FLAG-tagged PRMT1; Table 1, 100 μM compound, mean % difference of activity vs solvent control (100%), - inhibition, + activation, n = 3) | Efficacy ±∆% (PRMT1) (FLAG-tagged PRMT1; Table S3, 100 µM compound, mean % difference vs solvent control (100%), n≥3) | EC50 (FLAG-tagged PRMT1; read-out: half-maximal effective concentration (EC50) for PRMT1) [µM] | viability at 10 µM (PaTu8988T cells; Homo sapiens, PaTu 8988t, 48 h, read-out: Q4, viable cells (AV–/PI–)) [%] | apoptosis, AV/PI flow cytometry, single agent (PaTu8988T cells; PaTu8988T, TR-07 10 μM) |
| --- | --- | --- | --- | --- | --- | --- | --- | --- | --- | --- | --- | --- |
| 215–225% | significantly increased PRMT1 activity | ≥ 60 | 10 | CN(C)Cc1cccc(-c2ccc3[nH]c(=O)c4ccccc4c3c2)c1 [TR-033, 2-{3-[(Dimethylamino)methyl]phenyl}phenanthridin-6(5H)-One] |  | rather diminished the gemcitabine-triggered cell death |  |  |  |  |  |  |
| 215–225% |  | ≥ 60 | 32 | CCN(CC)Cc1cccc(N/C=C2\C(=O)NC(=O)c3ccccc32)c1.Cl [TR-036, (Z )-N-(3-{[(1,3-Dioxo-2,3-dihydroisoquinoline-4(1 H )-ylidene)methyl]amino}benzyl)-N -ethylethanaminium chloride] |  | rather diminished the gemcitabine-triggered cell death |  |  |  |  |  |  |

| Compound | PRMT1 activity compared to the solvent-treated activity of 100% (FLAG-tagged PRMT1; 100 μM compound) | effect on PRMT1 activity (in words) (FLAG-tagged PRMT1; 100 μM compound) | activation at 100 µM (FLAG-tagged PRMT1; [1]) [%] | IC50 (PANC-1 cells; Homo sapiens, PANC-1, 96 h) [µM] | IC50 (PANC-1 cells; 96 h) [µM] | gemcitabine-induced apoptosis, AV/PI flow cytometry, co-treatment (PaTu8988T cells; PaTu8988T, TR-07 10 μM, 48 h) | enhancement (increase) of PRMT1 enzymatic activity (FLAG-tagged PRMT1; [1]) | Efficacy ±Δ% (PRMT1) (FLAG-tagged PRMT1; Table 1, 100 μM compound, mean % difference of activity vs solvent control (100%), - inhibition, + activation, n = 3) | Efficacy ±∆% (PRMT1) (FLAG-tagged PRMT1; Table S3, 100 µM compound, mean % difference vs solvent control (100%), n≥3) | EC50 (FLAG-tagged PRMT1; read-out: half-maximal effective concentration (EC50) for PRMT1) [µM] | viability at 10 µM (PaTu8988T cells; Homo sapiens, PaTu 8988t, 48 h, read-out: Q4, viable cells (AV–/PI–)) [%] | apoptosis, AV/PI flow cytometry, single agent (PaTu8988T cells; PaTu8988T, TR-07 10 μM) |
| --- | --- | --- | --- | --- | --- | --- | --- | --- | --- | --- | --- | --- |
| (Z)-2-(2-{[(1,3-Dioxo-2,3-dihydroisoquinolin-4(1H)-ylidene)methyl]amino}phenyl)-N,N-dimethylethan-1-aminium chloride [ICTR-059] | up to 200% |  |  |  | 19 | weakly enhanced the gemcitabine-induced apoptosis |  |  |  |  |  |  |
| CN(C)Cc1cccc(CN/C=C2\C(=O)NC(=O)c3ccccc32)c1.Cl [TR-07, (Z)-1-[3-({[(1,3-Dioxo-2,3-dihydroisoquinolin-4(1H)-lidene)methyl]amino}methyl)phenyl]-N,N-dimethylmethanaminium chloride] |  |  |  | 45 |  | significant increase in the early and late apoptotic stages | +45% | +45% | +45% | 108 | 95.8 | did not significantly induce apoptosis |
